Measurements as given in patent publication US7816350B2, “Substituted [1,2,3] triazolo[4,5-D]pyrimidines as cdk inhibitors” (Institute of Experimental Botany ASCR, priority 2002, dated 2010).

How the values were obtained:
p34^cdc2/cyclin B (CDC2) = molecular target: T1, p34^cdc2/cyclin B (CDC2) (Homo sapiens, UniProt P06493); assay: CDK inhibition assay, p34cdc2/cyclin B kinase, histone H1 phosphorylation; type: biochemical
T1 construct: made in house; host or cells: Sf9 insect cells (baculovirus co-infection)
T1 sequence (P06493 whole entry, species assumed): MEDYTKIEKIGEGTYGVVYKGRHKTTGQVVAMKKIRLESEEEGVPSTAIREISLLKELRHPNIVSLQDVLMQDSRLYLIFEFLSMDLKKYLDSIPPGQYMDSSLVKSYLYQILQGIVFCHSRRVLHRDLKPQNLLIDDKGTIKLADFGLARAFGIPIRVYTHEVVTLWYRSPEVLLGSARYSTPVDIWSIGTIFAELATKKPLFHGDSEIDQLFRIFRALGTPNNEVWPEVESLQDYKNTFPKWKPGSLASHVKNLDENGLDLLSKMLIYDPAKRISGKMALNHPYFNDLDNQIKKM
T1 sequence (P14635 whole entry partner, species assumed): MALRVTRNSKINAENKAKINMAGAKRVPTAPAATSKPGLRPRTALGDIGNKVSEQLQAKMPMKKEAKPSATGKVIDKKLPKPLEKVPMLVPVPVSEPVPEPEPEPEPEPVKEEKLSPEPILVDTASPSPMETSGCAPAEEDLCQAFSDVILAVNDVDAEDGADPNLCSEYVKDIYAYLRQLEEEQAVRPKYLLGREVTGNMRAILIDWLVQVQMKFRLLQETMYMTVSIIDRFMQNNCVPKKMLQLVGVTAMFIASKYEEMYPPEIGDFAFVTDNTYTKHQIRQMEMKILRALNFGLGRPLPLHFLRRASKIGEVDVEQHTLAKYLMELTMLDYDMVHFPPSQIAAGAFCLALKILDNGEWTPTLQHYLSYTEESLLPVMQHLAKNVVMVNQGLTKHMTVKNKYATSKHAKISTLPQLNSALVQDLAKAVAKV
Description: Cyclin-dependent kinases (p34^cdc2, p33^cdk2) and cyclins (cyclin B, E) are produced in Sf9 insect cells coinfected with appropriate baculoviral constructs. The cells are harvested 68-72 hrs post infection in lysis buffer for 30 min on ice and the soluble fraction is recovered by centrifugation at 14.000 g for 10 min. The protein extract is stored at −80° C.
Lysis buffer: 50 mM Tris pH 7.4, 150 mM NaCl, 5 mM EDTA, 20 mM NaF, 1% Tween, 1 mM DTT, 0.1 mM PMSF, leupeptine, aprotonine.
To carry out experiments on kinetics under linear conditions, the final point test system for kinase activity measurement is used. The kinase is added to reaction mixture in such a way as to obtain linear activity with respect to the concentration of enzyme and with respect to time.
The p34^cdc2 and p33^cdk2 kinase inhibition determination involves the use of 1 mg/ml histone H1 (Sigma, type III-S) in the presence of 15 μM [γ-^32P]ATP ([…]) (Amersham) in a final volume of 20 μl. Kinase activity is determined at 30° C. in the kinase buffer.
Tested compounds are usually dissolved to 100 mM solutions in DMSO, final concentration of DMSO in reaction mixture never exceeds 1%. The controls contain suitable dilutions of DMSO.
After 10 min, addition 3×SDS sample buffer stops the incubations. Phosphorylated proteins are separated electrophoretically using 12.5% SDS polyacrylamide gel. The measurement of kinase activity is done using digital image analysis.
The kinase activity is expressed as a percentage of maximum activity, the apparent inhibition constants are determined by graphic analysis (FIG. 1).
Kinase buffer: 50 mM Hepes pH 7.4, 10 mM MgCl2, 5 mM EGTA, 10 mM 2-glycerolphosphate, 1 mM NaF, 1 mM DTT

IκB-α kinase = IκB-α kinase inhibitory activity, in vitro kinase assay; type: biochemical
β-adrenergic receptors = assay: Modulation of the activity of β-adrenergic receptors, isoproterenol-induced cAMP synthesis in C6 glioma; type: cell-based; conditions: cAMP synthesis induced by 5 μM (−) isoproterenol, rat C6 glioma
Description: Rat C6 glioma (ATCC N^o CCL107) was cultivated in monolayer in serum-free chemically defined medium containing Ham's F10/minimal essential medium (1:1 vol/vol), 2 mM L-glutamine, 1% (vol/vol) minimal essential medium vitamins (100×), 1% (vol/vol) minimal essential medium nonessential amino acids (100×), 100 U/ml penicillin, 100 μg/ml streptomycin and 30 nM sodium selenite. Incubation was at 37° C. in a humidified atmosphere. Assays were performed in the logarithmic growth phase at a density of 2.5×10^5 cells/cm^2. Intracellular cAMP synthesis was induced by addition of 5 μM (−) isoproterenol. After 30 min incubation at 37° C. the medium was removed and the cellular amount of cAMP determined using the cAMP-enzyme immunoassay kit of Amersham. The I50 is determined from a dose-response curve in duplicate (Table 7). The effect of seven 8-azapurine-analogs was measured after simultaneous addition with isoproterenol.
As P2Y1-like and A2 purinergic receptors, negatively and positively coupled to adenylate cyclase respectively, are present on rat C6 glioma it has to be determined if the modulation of the synthesis of cAMP is due to inhibition of the activation of β-adrenergic receptors by isoproterenol are due to activation of purinergic receptors.

MCF7 = assay: In vitro cytotoxic activity, MTT assay, MCF7; type: cell-based; conditions: Homo sapiens, 72 hours
Source text: One of the parameters used, as the basis for colorimetric assays is the metabolic activity of viable cells. For example, a microtiter assay, which uses the tetrazolium salt MTT, is now widely used to quantitate cell proliferation and cytotoxicity. For instance, this assay is used in drug screening programs and in chemosensitivity testing. Because only metabolically active cells cleave tetrazolium salts, these assays detect viable cells exclusively. In the case of MTT assay, yellow soluble tetrazolium salt is reduced to coloured water-insoluble formazan salt. After it is solubilized, the formazan formed can easily and rapidly be quantified in a conventional ELISA plate reader at 570 nm (maximum absorbance). The quantity of reduced formazan corresponds to number of vital cells in the culture.
Human T-lymphoblastic leukemia cell line CEM; promyelocytic HL-60 and monocytic U937 leukemias; breast carcinoma cell lines MCF-7, BT549, MDA-MB-231; glioblastoma U87MG cells; cervical carcinoma cells HELA; sarcoma cells U2OS and Saos2; hepatocellular carcinoma HepG2; mouse immortalized bone marrow macrophages B2.4 and B10A.4; P388D1 and L1210 leukemia; B16 and B16F10 melanomas were used for routine screening of compounds. The cells were maintained in Nunc/Corning 80 cm^2 plastic tissue culture flasks and cultured in cell culture medium (DMEM with 5 g/l glucose, 2 mM glutamine, 100 U/ml penicillin, 100 μg/ml streptomycin, 10% fetal calf serum and sodium bicarbonate).
The cell suspensions that were prepared and diluted according to the particular cell type and the expected target cell density (2.500-30.000 cells per well based on cell growth characteristics) were added by pipette (80 μl) into 96/well microtiter plates. Inoculates were allowed a pre-incubation period of 24 hours at 37° C. and 5% CO2 for stabilisation. Four-fold dilutions of the intended test concentration were added at time zero in 20 μl aliquots to the microtiter plate wells. Usually, test compound was evaluated at six 4-fold dilutions. In routine testing, the highest well concentration was 266.7 μM, but it can be the matter of change dependent on the agent. All drug concentrations were examined in duplicates. Incubations of cells with the test compounds lasted for 72 hours at 37° C., in 5% CO2 atmosphere and 100% humidity. At the end of incubation period, the cells were assayed by using the MTT. Ten microliters of the MTT stock solution were pipetted into each well and incubated further for 1-4 hours. After this incubation period, formazan was solubilized by addition of 100 μl/well of 10% SDS in water (pH=5.5) followed by further incubation at 37° C. overnight. The optical density (OD) was measured at 540 nm with the Labsystem iEMS Reader MF (UK). The tumour cell survival (TCS) was calculated using the following equation: TCS=(ODdrug exposed well/mean ODcontrol wells)×100%. The IC50 value, the drug concentration lethal to 50% of the tumour cells, was calculated from the obtained dose response curves (FIG. 2).

K-562 = assay: In vitro cytotoxic activity, MTT assay, K-562; type: cell-based; conditions: Homo sapiens, K562, 72 hours

Row | melting point [°C] | IC50 (p34^cdc2/cyclin B (CDC2)) [µM] | IC50 (IκB-α kinase) [µM] | SMILES | also measured
1 | 160 to 163 |  |  | CC(C)C(CO)Nc1nc(Nc2cccc(Cl)c2)c2nnn(C(C)C)c2n1 (stereo not shown) [Example 10, 2-(1-Hydroxymethyl-2-methylpropylamino)-6-(3-chloroanilino)-9-isopropyl-8-azapurine] | 
2 |  | 10 | 85 | CC[C@H](CO)Nc1nc(NCc2cccc(O)c2)c2nnn(C(C)C)c2n1 [2-R-(1-hydroxymethyl)propylamino-6-(3-hydroxybenzyl)amino-9-isopropyl-8-azapurine] | Effect, fold activation (β-adrenergic receptors): 1.3-fold activation
3 | 119 to 124 |  |  | NCCCNc1nc(NCc2ccccc2)c2[nH]nnc2n1 [Example 20, 2-(3-Aminopropylamino)-6-benzylamino-8-azapurine] | 
4 |  | > 100 | > 100 | CC(C)n1nnc2c(NCc3ccccc3)nc(NCCN)nc21 | Effect, fold activation (β-adrenergic receptors): 1.1-fold activation
5 | 120 to 123 |  |  | CC(C)n1nnc2c(NCc3ccccc3O)nc(N[C@H]3CC[C@H](N)CC3)nc21 [Example 12, 2-(trans-4-Aminocyclohexylamino)-6-(2-hydroxybenzylamino)-9-isopropyl-8-azapurine] | 
6 | 150 to 152 |  |  | CC(C)C(CO)Nc1nc(NCc2cccc(O)c2)c2nnn(C(C)C)c2n1 (stereo not shown) [Example 9, 2-(1-Hydroxymethyl-2-methylpropylamino)-6-(3-hydroxybenzylamino)-9-isopropyl-8-azapurine] | 
7 | 221 to 223 | 6.3 | 60 | CC(C)n1nnc2c(Nc3cccc(Cl)c3)nc(NC3CCC(N)CC3)nc21 (stereo not shown) [2-(4-aminocyclohexyl)amino-6-(3-chlorophenyl)amino-9-isopropyl-8-azapurine] | IC50 (MCF7): 6.1 µM; IC50 (K-562): 7.4 µM
8 | 133 to 139 |  |  | Cc1nc(NCc2ccccc2)c2nnn(C(C)C)c2n1 [Example 15, 2-methyl-6-benzylamino-9-isopropyl-8-azapurine] | 
9 |  |  |  | CC[C@H](CO)Nc1nc(NCc2ccc(O)cc2)c2[nH]nc(C(C)C)c2n1 | Effect, fold activation (β-adrenergic receptors): 1.2-fold activation
10 | 122 to 124 |  |  | Clc1nc(NCc2ccccc2)c2[nH]nnc2n1 [Example 18, 2-Chloro-6-benzylamino-8-azapurine] | 
11 |  | > 100 | > 100 | CC(C)n1nnc2c(NCc3ccccc3)nc(NCCCN)nc21 | Effect (β-adrenergic receptors; result in words): inhibition; IC50 (β-adrenergic receptors; read-out: I50): 31 ± 2 µM
